Test system: asthma-induced BALB/c mice (ovalbumin)
Test: Ovalbumin-induced asthma in BALB/c mice: white blood cell, eosinophil and IgE measurement
Type: in vivo
Details: asthma-induced female BALB/c mice; injected twice a week for 4 weeks; mean of 3 mice; mouse blood
Method: Ovalbumin was administered to BALB/c mice to induce asthma. The total white blood cell (WBC) count, eosinophil count, and […] in bronchoalveolar lavage fluid (BALF) were measured.
As experimental animals, BALB/c mice (supplier: Samtako Korea), which have been widely used in asthma tests, were used. Female BALB/c mice were used and were 6 weeks old at the time of acquisition and 7 weeks old at the time of the experiment. After acquisition, the mice were acclimatized in an animal test room for 6 days, and observed at least once a day. During the acclimatization period, the mice were distinguished by skin mark using a red oil magic pen. During the administration and observation period, the mice were distinguished by skin mark using a black oil magic pen. An individual identification card was attached to a breeding cage. The mice were housed in a breeding area under the condition of a temperature of 23±3° C., a relative humidity of 55±15%, a ventilation frequency of 10 to 20 times/hr, an illumination time of 12 hours, and an illuminance of 150 to 300 Lux. During the period of acclimatization and administration, at least four mice were housed in each polycarbonate breeding cage containing an appropriate amount of rug. During the acclimatization period, mice determined to be healthy were weighed and ranked according to weight. The mice were distributed into groups so that the mean weights of each group were equal.
As an asthma inducer, refrigerated ovalbumin (OVA) (catalog No.: A5503, supplier: Sigma Aldrich, Louis, Missouri, USA) was used. As an adjuvant, refrigerated aluminum hydroxide (Alum) (catalog No.: 77161, supplier: Thermo Fisher Scientific Inc, Waltham, Massachussets, USA) was used. […]
After 4 weeks, the measurement of the white blood cell (WBC) count, eosinophil count, and IgE was performed using mouse blood. The mean values thereof were calculated, and the results are illustrated in Table 3 below.

C[C@@H]1C[C@H]2[C@@H]3CCC4=CC(=O)C=C[C@]4(C)[C@@]3(F)[C@@H](O)C[C@]2(C)[C@@]1(O)C(=O)CO [Positive control, dexamethasone]
Eosinophil count: 1.41 X10^2 cells/μl | IgE: 23.45 µg/mL | WBC count: 39.83 X10^3 cells/μl
